Results from ChEMBL document CHEMBL4385621, “Synthesis and in vitro cytotoxicity evaluation of β-carboline-combretastatin carboxamides as apoptosis inducing agents: DNA intercalation and topoisomerase-II inhibition” (Bioorg Med Chem, 2019).
pIC50, pKd: −log10 of the molar value. The source made the active and inactive calls. The rule behind the calls is not given here.

Columns and labels:
[1] = system: DU-145; experiment: Antiproliferative activity against human DU145 cells assessed as reduction in cell viability after 48 hrs by SRB assay; format: functional, cell-based; details: DU-145, 48 h
[2] = system: HeLa; experiment: Antiproliferative activity against human HeLa cells assessed as reduction in cell viability after 48 hrs by SRB assay; format: functional, cell-based
[3] = system: A549; experiment: Antiproliferative activity against human A549 cells assessed as reduction in cell viability after 48 hrs by SRB assay; format: functional, cell-based; details: A549, 48 h
[4] = system: Calf thymus DNA; experiment: Binding affinity to calf thymus DNA by circular dichroism spectropolarimetric analysis; format: nucleic-acid assay; details: Bos taurus
[5] = target: DNA topoisomerase II (Homo sapiens) (UniProt P11388+Q02880); experiment: Inhibition of human topoisomerase-2 assessed as reduction in decatenation of kDNA at 10 uM incubated for 30 mins by ethidium bromide staining based agarose gel electrophoresis method; format: protein assay
[6] = system: Calf thymus DNA; experiment: Binding affinity to calf thymus DNA assessed as decrease in emission peak intensity using varying DNA level by spectrofluorimetric method; format: nucleic-acid assay; details: Bos taurus
[7] = system: Calf thymus DNA; experiment: Binding affinity to calf thymus DNA assessed as hypochromicity after 5 mins by UV-Vis absorption spectral analysis; format: nucleic-acid assay; details: Bos taurus
[8] = system: Calf thymus DNA; experiment: Binding affinity to calf thymus DNA assessed as decrease in emission peak intensity by spectrofluorimetric method; format: nucleic-acid assay; details: Bos taurus
[9] = system: Calf thymus DNA; experiment: Binding affinity to calf thymus DNA assessed as dissociation constant after 5 mins by UV-Visible spectroscopic method; format: nucleic-acid assay, Bos taurus

pIC50 [1]	pIC50 [2]	pIC50 [3]	Activity [4]	inhibition [5]	Activity [6]	Activity [7]	Activity [8]	Structure (SMILES)	pKd [9]
4.96	4.79	4.93						CCOc1ccccc1/C=C(/C(=O)NCc1cc2c([nH]c3ccccc32)c(-c2ccc(OC)cc2)n1)c1cc(OC)c(OC)c(OC)c1	
5.41	4.71	5.54						COc1cc(/C(=C\c2cccc(F)c2)C(=O)NCc2cc3c([nH]c4ccccc43)c(-c3cccc(F)c3)n2)cc(OC)c1OC	
4.89	4.43	5.02						COc1ccc(-c2nc(CNC(=O)/C(=C/c3ccc(Cl)cc3)c3cc(OC)c(OC)c(OC)c3)cc3c2[nH]c2ccccc23)cc1	
4.79	4.74	4.73						CCOc1ccccc1/C=C(/C(=O)NCc1cc2c([nH]c3ccccc32)c(-c2cc(OC)c(OC)c(OC)c2)n1)c1cc(OC)c(OC)c(OC)c1	
5.01	4.62	4.91						COc1cc(/C=C(/C(=O)NCc2cc3c([nH]c4ccccc43)c(-c3cccc(F)c3)n2)c2cc(OC)c(OC)c(OC)c2)cc(OC)c1OC	
5.39	4.56	5.45						COc1ccc(-c2nc(CNC(=O)/C(=C/c3cccc(F)c3)c3cc(OC)c(OC)c(OC)c3)cc3c2[nH]c2ccccc23)cc1	
4.93	4.58	4.85						COc1cc(/C=C(/C(=O)NCc2cc3c([nH]c4ccccc43)c(-c3cccc(F)c3)n2)c2cc(OC)c(OC)c(OC)c2)ccc1OC(C)=O	
5.73	5.01	5.79						COc1ccc(/C=C(/C(=O)NCc2cc3c([nH]c4ccccc43)c(-c3cccc(F)c3)n2)c2cc(OC)c(OC)c(OC)c2)cc1O	
5.74	4.86	5.88						COc1cc(/C(=C\c2ccc(C)cc2)C(=O)NCc2cc3c([nH]c4ccccc43)c(-c3cccc(F)c3)n2)cc(OC)c1OC	
5.59	4.84	5.86						COc1ccc(-c2nc(CNC(=O)/C(=C/c3ccc(C)cc3)c3cc(OC)c(OC)c(OC)c3)cc3c2[nH]c2ccccc23)cc1	
5.66	4.86	5.53						CCOc1ccccc1/C=C(/C(=O)NCc1cc2c([nH]c3ccccc32)c(-c2cccc(F)c2)n1)c1cc(OC)c(OC)c(OC)c1	
5.59	4.76	5.70						COc1cc(/C=C(/C(=O)NCc2cc3c([nH]c4ccccc43)c(-c3cccc(F)c3)n2)c2cc(OC)c(OC)c(OC)c2)cc(OC)c1	
5.07	4.50	4.65						COc1cc(/C(=C\c2ccc(Cl)cc2)C(=O)NCc2cc3c([nH]c4ccccc43)c(-c3cccc(F)c3)n2)cc(OC)c1OC	
5.61	4.72	5.59						COc1cc(/C=C(/C(=O)NCc2cc3c([nH]c4ccccc43)c(-c3cccc(F)c3)n2)c2cc(OC)c(OC)c(OC)c2)ccc1O	
4.90	4.40	4.89						COc1ccc(/C=C(/C(=O)NCc2cc3c([nH]c4ccccc43)c(-c3cccc(F)c3)n2)c2cc(OC)c(OC)c(OC)c2)cc1	
5.61	4.87	5.51						COc1ccc(/C=C(/C(=O)NCc2cc3c([nH]c4ccccc43)c(-c3cccc(F)c3)n2)c2cc(OC)c(OC)c(OC)c2)cc1OC(C)=O	
4.80	4.37	5.68						COc1cc(/C(=C\c2cccc(F)c2)C(=O)NCc2cc3c([nH]c4ccccc43)c(-c3cc(OC)c(OC)c(OC)c3)n2)cc(OC)c1OC	

The remaining lines, values behind:

Structure (SMILES)	pIC50 [1]	pIC50 [2]	pIC50 [3]	Activity [4]	inhibition [5]	Activity [6]	Activity [7]	Activity [8]	pKd [9]
COc1ccc(/C=C(/C(=O)NCc2cc3c([nH]c4ccccc43)c(-c3cc(OC)c(OC)c(OC)c3)n2)c2cc(OC)c(OC)c(OC)c2)cc1	5.18	4.71	5.65						
COc1cc(/C=C(/C(=O)NCc2cc3c([nH]c4ccccc43)c(-c3cc(OC)c(OC)c(OC)c3)n2)c2cc(OC)c(OC)c(OC)c2)cc(OC)c1	4.96	4.52	5.47						
COc1ccc(-c2nc(CNC(=O)/C(=C/c3ccc(C(F)(F)F)cc3)c3cc(OC)c(OC)c(OC)c3)cc3c2[nH]c2ccccc23)cc1	5.86	5.50	5.93	Active	Active	Active	Active	Active	3.95
COc1cc(/C=C(/C(=O)NCc2cc3c([nH]c4ccccc43)c(-c3cc(OC)c(OC)c(OC)c3)n2)c2cc(OC)c(OC)c(OC)c2)cc(OC)c1OC	4.81	4.44	4.98						
COc1ccc(-c2nc(CNC(=O)/C(=C/c3ccc(OC)c(O)c3)c3cc(OC)c(OC)c(OC)c3)cc3c2[nH]c2ccccc23)cc1	4.99	4.74	5.51						
COc1cc(/C(=C\c2ccc(C(F)(F)F)cc2)C(=O)NCc2cc3c([nH]c4ccccc43)c(-c3cc(OC)c(OC)c(OC)c3)n2)cc(OC)c1OC	5.69	4.83	5.95						
COc1ccc(-c2nc(CNC(=O)/C(=C/c3ccc(O)c(OC)c3)c3cc(OC)c(OC)c(OC)c3)cc3c2[nH]c2ccccc23)cc1	5.55	5.20	5.75						
COc1ccc(-c2nc(CNC(=O)/C(=C/c3ccc(OC(C)=O)c(OC)c3)c3cc(OC)c(OC)c(OC)c3)cc3c2[nH]c2ccccc23)cc1	5.01	4.93	5.26						
COc1ccc(/C=C(/C(=O)NCc2cc3c([nH]c4ccccc43)c(-c3cc(OC)c(OC)c(OC)c3)n2)c2cc(OC)c(OC)c(OC)c2)cc1O	5.10	4.64	5.12						
COc1ccc(-c2nc(CNC(=O)/C(=C/c3ccc(OC)c(OC(C)=O)c3)c3cc(OC)c(OC)c(OC)c3)cc3c2[nH]c2ccccc23)cc1	5.45	5.08	5.56						
COc1ccc(-c2nc(CNC(=O)/C(=C/c3cc(OC)cc(OC)c3)c3cc(OC)c(OC)c(OC)c3)cc3c2[nH]c2ccccc23)cc1	5.51	4.66	5.56						
COc1cc(/C(=C\c2ccc(Cl)cc2)C(=O)NCc2cc3c([nH]c4ccccc43)c(-c3cc(OC)c(OC)c(OC)c3)n2)cc(OC)c1OC	5.09	4.75	5.18						
COc1cc(/C=C(/C(=O)NCc2cc3c([nH]c4ccccc43)c(-c3cc(OC)c(OC)c(OC)c3)n2)c2cc(OC)c(OC)c(OC)c2)ccc1OC(C)=O	5.08	4.30	5.15						
COc1ccc2c(c1)[nH]c1c(C)nccc12 [HARMINE]	5.02	5.02	5.23						
COc1ccc(/C=C(/C(=O)NCc2cc3c([nH]c4ccccc43)c(-c3cc(OC)c(OC)c(OC)c3)n2)c2cc(OC)c(OC)c(OC)c2)cc1OC(C)=O	5.15	4.74	5.94						
COc1cc(/C=C(/C(=O)NCc2cc3c([nH]c4ccccc43)c(-c3cc(OC)c(OC)c(OC)c3)n2)c2cc(OC)c(OC)c(OC)c2)ccc1O	4.88	4.39	5.28						
COc1cc(/C(=C\c2ccc(C)cc2)C(=O)NCc2cc3c([nH]c4ccccc43)c(-c3cc(OC)c(OC)c(OC)c3)n2)cc(OC)c1OC	5.58	5.35	5.95						
COc1cc([C@@H]2c3cc4c(cc3[C@@H](O[C@@H]3O[C@@H]5CO[C@@H](C)O[C@H]5[C@H](O)[C@H]3O)[C@H]3COC(=O)[C@H]23)OCO4)cc(OC)c1O [ETOPOSIDE]	5.61	5.58	5.66						
